Data from patent publication US20210361701A1, “PENTAAZA MACROCYCLIC RING COMPLEXES FOR LOCAL DELIVERY” (Galera Labs, LLC, priority 2017, published 2021).
Several values for one entry are separate records, joined by “and”; a condition that tells them apart may be missing. Equal values may be shown once. Read-outs that look alike come from different tables or passages of the source. Each block holds one molecule with its values, some of them ahead of it.

Assays:
[1] = Rat indomethacin model of intestinal inflammation (Crohn's Disease); format: in vivo, Female Lewis rats
Procedure: A study was conducted to determine the potential efficacy of GC4403 delivered locally to the intestine in a model of intestinal inflammation (Crohn's Disease) induced by the administration of indomethacin. Female Lewis rats received cannulae surgically implanted in the duodenum with the opposite end exteriorized, and were allowed to recover. The cannulae enabled the direct injection of GC4403 or vehicle into the duodenum (intraduodenal or ID dosing) in these animals; however, uncannulated female Lewis rats were used for dosing groups not receiving ID dosing. Rats were administered indomethacin on experimental days 0 and 1 (9 mg/kg/d; subcutaneously) to induce lesions similar to those occurring in Crohn's disease in the small intestine (SI). The therapeutic interventions outlined in Table II were administered in 9 dosing groups of 10 (IV) or 12 (ID) animals each on days 0 through 3:
The rats were sacrificed and necropsied on day 4, and 10 cm sections from the middle portion of the SI (jejunum) were weighed and examined by histopathology for inflammation. The weight of a 10 cm section serves as a surrogate marker for comparing inflammation and edema across the dosing groups.

[2] = Plasma pharmacokinetics after intraduodenal or intravenous dosing in female rats; format: in vivo; settings: for plasma concentrations and Cmax: rat, in vivo
Procedure: Therefore, following equivalent doses of GC4403, the systemic exposure to an ID dose in this Example was at least 30-100 times lower than it would be from an IV dose. […] This is important since the No Observable Adverse Effect Level (NOAEL) for chronic repeated IV dosing of GC4403 in the rat was previously shown to be only 3 mg/kg/day, and at this time, GC4403 has only be administered successfully to humans by the IV route. Thus, GC4403 or another related dismutase mimetic, such as GC4419, administered as an appropriate oral dosage form delivering drug directly into the small intestine may be an effective treatment for Crohn's Disease, ulcerative colitis and related diseases in humans.

[3] = chronic repeated IV dosing, rat; cited from earlier work
[4] = 30-minute iv infusion in humans; cited from earlier work
[5] = Maximum tolerated dose by 30-minute iv infusion in humans; settings: in a 70-kg subject
[6] = Phase 1b trial of intravenous GC4419: toxicity and plasma pharmacokinetics; format: in vivo, human
Procedure: (§1) The toxicity of GC4419 administered intravenously was evaluated as a part of a phase 1b trial of the use of GC4419 in the treatment of oral mucositis (OM) in patients having oral cavity or oropharyngeal carcinoma. The bioavailability by intravenous administration is presumed to represent 100% systemic bioavailability. In particular, the patients tested included serial 3-6 patient cohorts, with locally-advanced, non-metastatic oral cavity or oropharyngeal carcinoma. The study called for intensity-modulated (IM)RT to approx. 70 Gy total (>50 Gy to >2 oral sites), 2.0-2.2 Gy/fx M-F plus CDDP; plus escalating doses of GC4419, via 60-minute IV infusion, M-F for 3-7 weeks, ending <60 minutes before IMRT. WHO grade of oral mucositis was assessed twice weekly, and levels of GC4419 were measured in plasma by LC/MS. Circulating cytokines (Cy) mechanistically related to oral mucositis were also assayed.
Furthermore, or Phase 1 trials for chemoradiotherapy-induced mucositis (OM) in patients with mouth or oropharyngeal carcinoma, treatment was provided but certain adverse effects (e.g., due to systemic toxicity) occurred. The dosing regimen included dosing with GC4419 intravenously over a period of 60 minutes, ending 60 minutes before an IMRT fraction, according to the protocol as described above. The most common adverse effects were nausea, fatigue, leukopenia, dry mount, dysgeusia and vomiting, and most were attributable to chemo or radiation therapy. A true “maximum dose” was not reached in this study. […] 16% of patients receiving 90 mg/day had grade 3 nausea, and 25% of those receiving 112 mg/day had grade 3 nausea, with those receiving 112 mg/day also experiencing some grade 3 vomiting (i.e., 25%).

[7] = Phase 1b trial of intravenous GC4419: oral mucositis outcome; format: in vivo, human; settings: IV GC4419 with IMRT plus CDDP; compared with historical controls
Procedure: as §1

[8] = Minipig intraduodenal (id) bioavailability of oil formulations versus iv parent complex; format: in vivo, Gottingen minipig; settings: id 10 mg/kg, 10% by weight formulation, vs 1 mg/kg iv parent, AUC0->24 h
Procedure: Compounds were screened for oral bioavailability by injecting the formulated prodrugs directly into the duodenum (intraduodenal or id administration) of the minipig test subjects, thus bypassing the acidic environment of the stomach and thereby eliminating potentially misleading oral bioavailability results that could arise from alteration of the test article drug in the acid environment of the stomach.
The studies were conducted at Xenometrics LLC (Stillwell, Kans.) and the id bioavailability was determined using various axial ligand derivative complexes of GC4419, GC4444, GC4403 and GC4401. […] The following formula is then used to calculate the % oral bioavailability via intestinal absorption of the test article drug complex:
% Oral Bioavailability=AUC0->24 h(id)×(1/dose (mg/kg))÷AUC0->24 hr (iv)*
*Where the iv dose is 1 mg of test article drug per kilogram body weight of the mini-pig, and the dose administered id is 10 mg of test article drug per kg body weight of the mini-pig.
Male Gottingen minipigs (4-5 mo old, 9-12 kg weight) were purchased from Marshall BioResources and housed at Xenometrics. […] The distal end was exteriorized with a reusable accessible hub (see surgical details below). During a recovery period of at least 2 weeks the minipigs were handled daily to acclimate them to the test procedures, i.e., id dosing and blood collections. For each experiment, each minipig received a test article drug dissolved or suspended in an excipient vehicle. […] All dosing experiments were conducted in fasted animals. Food was withdrawn from the minipigs 16 hours before dosing. The minipigs had ad libitum access to water. Dosed minipigs were allowed access to food 6 hour after dosing. The test article was administered at a dose of 10 mg/kg parent drug in 0.1 mL/kg vehicle (e.g., 1.5 mL in 15 kg minipig) as a bolus injection (˜1 minute) via the id cannula. The actual amount of total test article drug administered varied with the formula weight of the prodrug. An equal volume of excipient vehicle was used to flush the cannula after the test article was administered. Approximately 6 hours later, corn oil was used to flush the cannula. After approximately 24 hours post-dose, the catheter was flushed with sterile saline solution and capped. At the following time-points 0.25, 0.5, 1, 2, 4, 8, 24 and 48 hour post-injection, 2 mL blood samples were collected by cranial vena cava puncture (4 mL Sodium heparin Vacutainer, 20 g 1.5″ needle) after the skin surface was wiped with ethanol. The minipig was placed in a sling in a recumbent position without anesthesia for the collection of blood samples. The minipigs were never used more than once per 7 days for experimentation. The blood samples were kept on ice until processed for plasma. Blood samples were centrifuged at 1200×g for ten minutes at 4° C. and plasma samples were transferred to 96 well plate tubes, capped and stored at −20° C. until shipment on dry ice to the analytical laboratory used for measuring the concentration of drug in the plasma. The concentration of the parent manganese pentaaza macrocylic ring complex (independent of the composition of the axial ligands) was measured in plasma using a validated HPLC/MS/MS method that is linear between 50 ng/mL and 20,000 ng/mL.
The oils used for preparing the dosing solutions were used as supplied from commercial sources. The Capmul MCM (NF) is a mixture of mono/diglycerides of caprylic/capric acids and was supplied by ABITEC Corporation, Janesville, Wis. The Miglyol 812 N is a mixture of caprylic/capric acid triglycerides and was supplied by Cremer Oleo Division, Eatontown, N.J. Labrafil M 2125 CS (NF) is chemically defined to be linoleoyl polyoxyl-6 glycerides NF and was supplied by Gattefosse, SAINT-PRIEST Cedex, France. Peceol is chemically defined to be the monoglyceride, glyceryl monooleate NF, and was supplied by Gattefosse, SAINT-PRIEST Cedex, France. […]

[9] = 10 mg/kg IP injection on days 0-3
[10] = 30 mg/kg ID, direct topical delivery into the intestine

Molecule: [Cl-].[Cl-].[Mn+2].c1cc2nc(c1)CN[C@@H]1CCCC[C@H]1NCCN[C@@H]1CCCC[C@H]1NC2 [GC4403]
jejunal score [1, 9]: reduced
jejunal weight [1, 9]: reduced
reduction in jejunal score [1, 10]: 21%
reduction in jejunal weight [1, 10]: 32%
mean plasma maximum ([2]; 3 mg/kg IV dose, separate study, measured 10 min after injection): at least 3,280 ng/mL
mean plasma maximum (Cmax) ([2]; 30 mg/kg ID dose): 303 ng/mL
calculated bioavailability ([2]; 30 mg/kg ID dose, AUC of ID vs estimated AUC with IV): 3.1%
expected Cmax extrapolated ([2]; 30 mg/kg IV dose): approximately 32,800 ng/mL
Cmax of ID dose relative to expected Cmax of same dose IV ([2]; 30 mpk ID vs 30 mg/kg IV (extrapolated)): less than 1%
systemic exposure to an ID dose, lower than from an IV dose ([2]; equivalent doses): 30-100 times
No Observable Adverse Effect Level (NOAEL) [3]: 3 mg/kg/day
maximum tolerated dose [4]: 25 mg
maximum tolerated dose [5]: roughly 0.35 mg/kg

Molecule: [Cl][Mn][Cl].c1cc2nc(c1)CN[C@H]1CCCC[C@@H]1NCCN[C@H]1CCCC[C@@H]1NC2 [GC4419]
nausea, patients ([6]; 30 mg/day for 14 or 30 doses, IV): 86%
nausea, patients ([6]; 50 mg/day for 14 doses, IV): 100%
nausea, patients ([6]; 75 mg/day for 14 doses, IV): 67%
grade 3 nausea, patients ([6]; 90 mg/day, IV): 20% and 16%
Dose-limiting toxicities that occurred, grade 3 ([6]; 112 mg daily, 60-minute IV infusion, with IMRT/CDDP): gastroenteritis (3 wks); and vomiting with hyponatremia (5+ wks)
nausea, patients ([6]; 112 mg/day for 14, 20, 25 or 30 doses, IV): 89% and 85%
Cmax and AUC ([6]; 60-minute IV infusion, 15-112 mg): dose-proportional
plasma t1/2 ([6]; 60-minute IV infusion, patients): ~2 h
dose limiting toxicity observed at ([6]; 60-minute IV infusion, grade 3 gastroenteritis at 3 weeks, grade 3 vomiting and hyponatremia at 5+ weeks): 112 mg/day
GC4419-related toxicity ([6]; IV, 15-112 mg daily for 3-7 weeks): acceptable
maximum dose ([6]; IV, up to 112 mg/day): not reached
facial tingling ([6]; during infusion): Mild, transient facial tingling was observed
paresthesia ([6]; patients receiving more than 30 mg/day, IV): Some grade 1-2 paresthesia was also observed
Severe OM [7]: briefer, delayed, less severe, and less frequent than expected
plasma concentrations and Cmax [2]: similarly low plasma concentrations and Cmax as GC4403
plasma concentrations and Cmax ([2]; iv): similarly high plasma concentrations and Cmax

Mini-Pig BioA ([8]; Base oil Capmul MCM): 24%
Mini-Pig BioA ([8]; Base oil Maisine 35-1): 18%
Mini-Pig BioA ([8]; Base oil Peceol): 29%
Molecule: O=C([O-])c1ccccc1.O=C([O-])c1ccccc1.[Mn+2].c1cc2nc(c1)CNC1CCCCC1NCCNC1CCCCC1NC2 [GC4712, Manganese(II)bis-Benzoato[(4aS,13aS,17aS,21aS)-1,2,3,4,4a,5,6,12,13,13a,14,15,16,17,17a,18,19,20,21,21a-Eicosahydro-11,7-nitrilo-7H-dibenzo[b,h][1,4,7,10]tetraazacycloheptadecine-κN5, κN13, κN18, κN21, κN22]-]

Mini-Pig BioA ([8]; Base oil Labrafil M2125 CS): 21%
Mini-Pig BioA ([8]; Base oil Peceol): 18%
Molecule: CCCC(=O)[O-].CCCC(=O)[O-].[Mn+2].c1cc2nc(c1)CNC1CCCCC1NCCNC1CCCCC1NC2 [GC4713, Manganese(II)bis-n-Butyrato[(4aS,13aS,17aS,21aS)-1,2,3,4,4a,5,6,12,13,13a,14,15,16,17,17a,18,19,20,21,21a-Eicosahydro-11,7-nitrilo-7H-dibenzo[b,h][1,4,7,10]tetraazacycloheptadecine-κN5, κN13, κN18, κN21, κN22]-]

Mini-Pig BioA ([8]; Base oil Labrafil M2125 CS): 20%
Molecule: CC1NC2CCCCC2NCCNC2CCCCC2NCc2cccc1n2.CCC(=O)[O-].CCC(=O)[O-].[Mn+2] [GC4747, Manganese(II)bis-propionato[6R-Methyl(4aR,13aR,17aR,21aR)-1,2,3,4,4a,5,6,12,13,13a,14,15,16,17,17a,18,19,20,21,21a-Eicosahydro-11,7-nitrilo-7H-dibenzo[b,h][1,4,7,10]tetraazacycloheptadecine-κN5, κN13, κN18, κN21, κN22]-]

Mini-Pig BioA ([8]; Base oil Miglyol 812 N): 11.5%^
Molecule: Manganese(II)bis-D-phenylglycinato [(4aS,13aS,17aS,21aS)-1,2,3,4,4a,5,6,12,13,13a, 14,15,16,17,17a,18,19,20,21,21a-Eicosahydro-11,7-nitrilo-7H-dibenzo[b,h][1,4,7,10] tetraazacyclo-heptadecine-κN5, κN13, κN18, κN21, κN22]- [GC4721]
